For assay [1], the system named is A/California/07/2009 virus (H1N1; CA07). Set-up: species or system BALB/c mice. The note with it: mouse, in vivo.
For the next assay, the system named is Ebola GP protein. Format: in vivo, BALB/c mice.
The test system of another assay is influenza virus. Format: in vivo, mice.
The test system of assay [2] is A/California/07/2009 virus (H1N1; CA07). Set-up: species or system BALB/c mice. The conditions noted are these: mouse, in vivo. This is another data set of the same source.
Where [3] appears, read: nasal immunization with vaccine + compound, 100 μg/dose (saponin 10 μg/dose), Day 0, 14, 28.

Each structure is given as a SMILES string. Read-outs that look alike come from different tables or passages of the source. Some results are limits rather than exact numbers.

Take `CCO` [Ethanol]: in assay [1], the “Mean value of antibody titers, Only compound” value is listed as under 10; the “Mean value of antibody titers, Vaccine + compound” value is on record as 400.00; the “Relative ratio of antibody titer to alum (Compound/alum)” value was 0.56. In addition, the “Mean value of antibody titers, Vaccine + compound” value with Ebola GP protein (Ebola VLP 1 μg/dose + compound, i.m. twice, serum two weeks after second immunization, mean of 4 mice) worked out at 140.00. Also, the “Antibody titer ratio (a)” value with Ebola GP protein ([VLP + candidate compound]/[VLP + AddaVax]) worked out at 0.23. The “Mean value of antibody titers, Only compound (c)” value with Ebola GP protein (compound alone, mice treated as in the influenza adjuvant screening) was under 10.

As to `CC(/C=C/C=C(C)/C=C/C(=O)O)=C\C=C\C=C(C)\C=C\C=C(C)\C=C\C(=O)O` (stereo in doubt) [Norbixin], the “Antibody titers (IgG)” value in the assay with influenza virus (mouse, in vivo) stood at 340. Besides, in assay [2], the “Antibody titers in primary screening, Vaccine + compound” value (shortened to “Antibody titers in primary screening”) worked out at 7680.00 and the “Relative ratio of antibody titer to alum (compound/alum), primary screening” value is 8.00. Also, in assay [1], the “Relative ratio of antibody titer to alum (compound/alum), secondary screening” value was determined as 5.14 and the “virus-specific antibody titers compared with the alum adjuvant” value was “equal to or higher than the alum adjuvant did”.

For `Cc1cc2nc3c(=O)[nH]c(=O)nc-3n(C[C@H](O)[C@H](O)[C@H](O)CO)c2cc1C` [Riboflavin], the “Antibody titers (IgG)” value in the assay on influenza virus (setting [3]) was found to be 880. The “Antibody titers in primary screening” value in assay [2] was 2560.00. Besides, the “Antibody titers in secondary screening, Vaccine + compound” value (“Antibody titers in secondary screening” for short) in assay [1] was found to be 2240.

Regarding `C[C@@H]1O[C@@H](OC[C@H]2O[C@@H](Oc3c(-c4ccc(O)c(O)c4)oc4cc(O)cc(O)c4c3=O)[C@H](O)[C@@H](O)[C@@H]2O)[C@H](O)[C@H](O)[C@H]1O` [Rutin hydrate], the “Antibody titers (IgG)” value with influenza virus (setting [3]) was 280. The “Antibody titers in primary screening” value in assay [2] (hydrate) turned out to be 1280.00. Moreover, the “Antibody titers in secondary screening” value in assay [1] (hydrate) came out at 720.

`O.O=P([O-])([O-])OCC(O)CO.[Ca+2]` (stereo not shown): the “Antibody titers (IgG)” value with influenza virus (mouse, in vivo) was 261.25. Besides, in assay [2], the “Antibody titers in primary screening” value is listed as 1920.00 and the “Relative ratio of antibody titer to alum (compound/alum), primary screening” value is reported as 1.71. Besides, in assay [1], the “Antibody titers in secondary screening” value was 4800 and the “Relative ratio of antibody titer to alum (compound/alum), secondary screening” value is 3.33.

These data come from patent US20240261398A1 (priority 2018, published 2024).
